Laboratory results reported in patent US20180289008A1, “METHODS FOR WILDFIRE CONTROL, INVASIVE PLANT CONTROL, AND RESIDUAL CONTROL OF INVASIVE PLANTS” (priority 2017, published 2018).

Key:
[1] = test system: Dalmatian toadflax (Linaria dalmatica); assay: Herbicide efficacy field trial, visual percent control of Dalmatian toadflax; format: in vivo; conditions: 4 YAT
Method: The present inventors conducted a field trial to evaluate the effectiveness of herbicides for long-term downy brome and Dalmatian toadflax control. The experiment was conducted at one site. The results provide the framework for the subsequent greenhouse experiment. (See below). The field experiment was located in Longmont, Colo. (lat 40° 14′57.53″N, long 105° 12′35.46″W) on Rabbit Mountain Open Space, the easternmost point of the foothills in Boulder County. The canopy cover of actively growing downy brome and Dalmatian toadflax at peak standing crop was approximately 85% and 30%, respectively. Before herbicide application (June and August), perennial grasses (<10% canopy cover) included primarily western wheatgrass (Pascopyrum smithii (Rydb.) A. Love), and native forbs and sub-shrubs (˜20% canopy cover) included Louisiana sage (Artemisia ludoviciana Nutt.), fringed sage (Artemisia frigida Willd.), common sunflower (Helianthus annuus L.), sulphur-flower buckwheat (Eriogonum umbellatum Torr.), and hairy goldenaster (Heterotheca villosa (Pursh) Shinners). The soil at the study site was Baller sandy loam (loamy-skeletal, mixed, superactive, mesic Lithic Haplustolls), with 1.5% organic matter in the top 20 cm. The average elevation was 1,725 m (5,660 ft). Mean annual precipitation based on the 30-yr average was 363 mm and the mean annual temperature was 9.1° C. […]. A statewide-drought occurred and average total precipitation decreased 134 mm; however, the site received an additional 110 mm above the 30-yr average.
Herbicides were applied in the summer at two application timings; June, when Dalmatian toadflax was in the flowering growth stage, and August, during Dalmatian toadflax regrowth. These two application timings (June and August) were both before downy brome emergence (PRE). The 13 herbicide treatments (including a non-treated control) were applied to 3 by 9 m plots arranged in a randomized complete block design with four replications, and are listed in Table 1. […]
(§1) For the herbicide efficacy field experiment, repeated measures analysis of variance (ANOVA) was used to determine the effects of herbicide treatments on long-term Dalmatian toadflax and downy brome control. Percent control data were first analyzed in SAS 9.3 using Proc MIXED, with year after treatment defined as the repeated measure (SAS Institute 2010). […] Dalmatian toadflax and downy brome control response variables were analyzed separately, and main effects and interactions were tested at the α=0.05 significance level. […] To determine herbicide impacts on residual Dalmatian toadflax and downy brome control, the significant treatment-by-year interaction was evaluated using the Proc GLIMMIX method and the LINES statement. […]

[2] = test system: Common mullein (Verbascum thapsus); assay: Greenhouse pre-emergence dose-response bioassay (GR50); format: in vivo; conditions: pre-emergence
Text: (§2) A greenhouse experiment was designed to determine if the extended control of Dalmatian toadflax and downy brome provided by indaziflam in the field was due to increased residual seedling control. This experiment was designed to compare indaziflam's pre-emergence efficacy to the currently recommended herbicides (aminocyclopyrachlor and aminopyralid) for annual, biennial, and perennial weed control in non-crop areas. […] This allows for direct comparisons between herbicides on an active ingredient basis for aminopyralid, aminocyclopyrachlor, and indaziflam.
(§3) For the greenhouse bioassay, seeds were planted at a constant depth of 0.5 cm in 13- by 9- by 6-cm plastic containers, filled with an Otero sandy clay loam field soil (Coarse-loamy, mixed (calcareous), mesic Aridic Ustorthents) with 3.9% OM and pH 7.7. Seeding densities were adjusted based on germinability to reach a target density of 40 plants/pot. Plants were maintained in a greenhouse with a 25/20° C. day/night temperature with natural light supplemented with high-intensity discharge lamps to give a 15-h photoperiod. Plants were sub-irrigated as needed and misted overhead daily to reduce soil crusting.
(§4) The greenhouse experiment was a completely randomized design with a factorial of seven herbicide rates and a non-treated control with three replicates per treatment. The experiments were conducted at two different times. A preliminary greenhouse study was conducted for each herbicide and species to determine a range of doses that would best fit a logistic regression. It is not unusual for both pre-emergence and post-emergence herbicides to provide control at lower than labeled rates, e.g., 0.5-560 g ai ha^−1 (aminocyclopyrachlor), 0.9-224 g ai ha^−1 (aminopyralid), and 0.05-11.7 g ai ha^−1 (indaziflam) in the greenhouse with ideal environmental conditions, so it was not surprising that herbicide doses for the regression analysis were much lower than recommended field use rates. Herbicides were applied pre-emergence using a Generation III research track sprayer (DeVries Manufacturing, Hollandale, Minn.) equipped with a TeeJet 8002 EVS flat-fan spray nozzle (TeeJet Spraying Systems Co., Wheaton, Ill.) at 187 L·ha-1 at 172 kPa.
(§5) Plants were harvested at the soil surface approximately 4 to 5 week-after-treatment (WAT) depending on the growth stage of each species. Weights were recorded after samples were dried for 5 days at 60° C. Percent dry weight reduction was calculated relative to the non-treated control plants for each treatment.
(§6) Data from the greenhouse dose-response experiment were first analyzed using the PROC MIXED method in SAS 9.3 with treatment as a fixed effect and experiment and replicate as random effects (SAS Institute 2010). Based on a non-significant homogeneity of variance (ANOVA) and experiment-by-herbicide rate interaction, results from the repeated experiments were pooled. The treatment effect was significant, therefore, nonlinear regression in Graphpad Prism 7.00 (GraphPad Software, La Jolla Calif. USA) was used to describe the response of the nine weed species to aminocyclopyrachlor, aminopyralid, and indaziflam. The herbicide concentrations resulting in 50% reduction in plant biomass (GR50) compared to the non-treated control were determined for each invasive weed species using four-parameter log-logistic regression. The equation used to regress herbicide concentration with percent reduction in plant dry biomass as compared to the non-treated control was:
(§7) where C and D represent the lower and upper limits of the dose-response curve, respectively, and b represents the slope of the best-fitting curve through the GR50 value. For curve fitting and GR50 estimation, the model was constrained to a maximum of 100 and minimum of 0. Mean separation of herbicide GR50 values were analyzed by Fisher's Protected LSD test at the 5% level of probability. […]

[3] = test system: Common teasel (Dipsacus fullonum); assay: as above; format: in vivo; conditions: for GR50 (herbicide dose resulting in 50% dry biomass reduction): pre-emergence
Text: as §2, §3, §4, §5, §6, §7

[4] = test system: Curly dock (Rumex crispus); assay: as above; format: in vivo; conditions: pre-emergence
Text: as §2, §3, §4, §5, §6, §7

[5] = test system: Dalmatian toadflax (Linaria dalmatica); assay: as above; format: in vivo; conditions: pre-emergence
Text: as §2, §3, §4, §5, §6, §7

[6] = test system: Diffuse knapweed (Centaurea diffusa); assay: as above; format: in vivo; conditions: pre-emergence
Text: as §2, §3, §4, §5, §6, §7

[7] = test system: Halogeton (Halogeton glomeratus); assay: as above; format: in vivo; conditions: pre-emergence
Text: as §2, §3, §4, §5, §6, §7

[8] = test system: Marestail (Conyza Canadensis); assay: as above; format: in vivo; conditions: pre-emergence
Text: as §2, §3, §4, §5, §6, §7

[9] = test system: Musk thistle (Carduus nutans); assay: as above; format: in vivo; conditions: pre-emergence
Text: as §2, §3, §4, §5, §6, §7

[10] = test system: downy brome (Bromus tectorum); assay: as above; format: in vivo; conditions: pre-emergence
Text: as §2, §3, §4, §5, §6, §7

[11] = pH 7; cited from earlier work
[12] = average; cited from earlier work
[13] = test system: downy brome (Bromus tectorum); assay: Herbicide efficacy field trial, visual percent control of downy brome; format: in vivo; conditions: 4 YAT
Method: The present inventors conducted a field trial to evaluate the effectiveness of herbicides for long-term downy brome and Dalmatian toadflax control. The experiment was conducted at one site. The results provide the framework for the subsequent greenhouse experiment. (See below). The field experiment was located in Longmont, Colo. (lat 40° 14′57.53″N, long 105° 12′35.46″W) on Rabbit Mountain Open Space, the easternmost point of the foothills in Boulder County. The canopy cover of actively growing downy brome and Dalmatian toadflax at peak standing crop was approximately 85% and 30%, respectively. […]
as §1

[14] = test system: invasive winter annual grass (downy brome, feral rye, Japanese brome); assay: Invasive winter annual grass field efficacy studies, biomass as percent of non-treated (Sites 1 and 2 combined); format: in vivo, Bromus tectorum, Secale cereale, Bromus japonicus; conditions: 1 YAT, EPRE timing, imazapic 123 g·ai·ha^−1
Method: In year 1, field experiments were conducted to compare the effectiveness of indaziflam and imazapic for long-term invasive winter annual grass control, and to evaluate the response of the native plant communities. The experiments were established at two sites on the Colorado Front Range dominated by invasive winter annual grasses. Site 1 (lat 40° 15′2″N, long 105° 12′56″W) was infested with equal amounts of downy brome and Japanese brome. Site 2 (lat 40° 43′23″N, long 104° 55′58″W) was infested with feral rye. These two sites were approximately 58 km apart. Site 1 was located on Rabbit Mountain Open Space (Boulder County). Site 2 was located on a Colorado Parks and Wildlife Area (Larimer County). Before herbicide application in July, visual estimates were made across the entire study area of percentage of living canopy cover for all species present at both sites.
Site 1 was characterized by ˜80-100% downy brome and Japanese brome canopy cover with a dense fine-fuel layer, e.g., thatch, (2 to 5 cm), and a scattered stand of co-occurring species (˜0-10% canopy cover, Table 4). […]
Biomass harvests and species richness evaluations were conducted in August (year 2 and year 3) to evaluate invasive winter annual grass control and response of co-occurring species. […] Additionally, at Site 1, species richness was calculated for each treatment as a simple estimate of biological diversity. […]

SMILES | Dalmatian toadflax control ([1]; August application timing) [%] | Dalmatian toadflax control ([1]; June application timing) [%] | GR50 (herbicide dose resulting in 50% dry biomass reduction) [2] | GR50 (herbicide dose resulting in 50% dry biomass reduction) [3] | GR50 (herbicide dose resulting in 50% dry biomass reduction) [4] | GR50 (herbicide dose resulting in 50% dry biomass reduction) [5] | GR50 (herbicide dose resulting in 50% dry biomass reduction) [6] | GR50 (herbicide dose resulting in 50% dry biomass reduction) [7] | GR50 (herbicide dose resulting in 50% dry biomass reduction) [8] | GR50 (herbicide dose resulting in 50% dry biomass reduction) [9] | GR50 (herbicide dose resulting in 50% dry biomass reduction) [10] [b g ai ha^−1] | Log Kow [11] | water solubility [12] | times more active (lower GR50) compared to aminocyclopyrachlor [3] | times more active (lower GR50) compared to indaziflam [3] | residual downy brome control [13] | invasive winter annual grass control [14] [%]
Nc1nc(C2CC2)nc(C(=O)[O-])c1Cl.[K+] [Aminocyclopyrachlor, aminocyclopyrachlor] | 55 | 50 | 3.05 b g ai ha^−1 | 6.89 c g ai ha^−1 | 21.3 b g ai ha^−1 | 1.16 b g ai ha^−1 | 6.20 c g ai ha^−1 | 1.04 b g ai ha^−1 | 2.09 c g ai ha^−1 | 1.25 b g ai ha^−1 | 56.4 | −2.48 | 4,200 mg L-1 | – | – | – | –
Nc1cc(Cl)nc(C(=O)O)c1Cl [Aminopyralid, aminopyralid] | – | – | 7.45 c g ai ha^−1 | 0.75 a g ai ha^−1 | 1.25 a g ai ha^−1 | 14.8 c g ai ha^−1 | 2.50 b g ai ha^−1 | 3.11 c g ai ha^−1 | 0.80 b g ai ha^−1 | 0.31 a g ai ha^−1 | 38.5 | −2.87 | 207,000 mg L-1 | 9 | 2 | – | –
Cc1cnc(C2=NC(=O)C(C)(C(C)C)N2)c(C(=O)O)c1 (stereo not drawn) [Imazapic, imazapic] | – | – | – | – | – | – | – | – | – | – | – | 0.01 | – | – | – | less than 25% | ~41
Nc1c(Cl)c(Cl)nc(C(=O)O)c1Cl [Picloram, picloram] | 64 | 68 | – | – | – | – | – | – | – | – | – | 1.18 | 200,000 mg L-1 | – | – | – | –
